# Numbered stars: 1 amine (or outer) side, 2 acyl side, 3 side chain; on linkers, the order of the positions; unused ones are H or OH. Square brackets hold non-standard residues; d marks the D form. Side chains are listed from the residue outwards. Peptide text beside a SMILES is read from it. * marks the point of attachment. C18 diacid = O=C(O)CCCCCCCCCCCCCCCCC(=O)*; γGlu = O=C(O)[C@H](CCC(=O)[*:2])N[*:1]; Ac4c = NC1(C(=O)O)CCC1; AEEA = NCCOCCOCC(=O)O; Aib = CC(C)(N)C(=O)O
# Biological target: T1, human glucagon receptor (Homo sapiens, UniProt P47871)
# T1 construct: expressed in transfected cells; host or cells: BHK cells (parent BHK570, CRE luciferase clone BHK/KZ10-20-48), clone pLJ6'-4-25
# T1 sequence (P47871 26-477): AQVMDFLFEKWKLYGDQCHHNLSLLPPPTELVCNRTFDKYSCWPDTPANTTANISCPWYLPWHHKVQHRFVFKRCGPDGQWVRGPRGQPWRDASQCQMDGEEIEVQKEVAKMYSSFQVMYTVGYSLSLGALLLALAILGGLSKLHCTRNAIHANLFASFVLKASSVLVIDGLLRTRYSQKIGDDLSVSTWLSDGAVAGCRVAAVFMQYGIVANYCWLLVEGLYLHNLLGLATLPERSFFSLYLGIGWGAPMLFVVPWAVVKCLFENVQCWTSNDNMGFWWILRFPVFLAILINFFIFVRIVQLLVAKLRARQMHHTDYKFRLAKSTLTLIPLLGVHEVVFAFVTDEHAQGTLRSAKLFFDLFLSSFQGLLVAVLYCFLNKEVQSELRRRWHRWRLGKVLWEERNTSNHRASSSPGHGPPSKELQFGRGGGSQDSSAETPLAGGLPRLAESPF
# Experiment: Glucagon receptor binding, 125I-glucagon displacement SPA on isolated membranes
# Settings: displacement of 125I-glucagon from membranes; read-out: IC50 GlucR
# Method: The purpose of this assay was to test the in vitro receptor binding activity (i.e. affinity) of the glucagon derivatives of the invention. The receptor binding activity is a measure of affinity of a derivative for the human glucagon receptor.
# The receptor binding of each compound to the human glucagon receptor was measured in a displacement binding assay. In this type of assay a labelled ligand (in this case 125I-glucagon) is bound to the receptor. Each derivative was added in a series of concentrations to isolated membranes containing the human glucagon receptor and displacement of the labelled ligand is monitored. The receptor binding was reported as the concentration at which half of the labelled ligand is displaced from the receptor, the IC50 value.
# In order to test the binding of the derivatives to albumin, the assay may be performed in a very low concentration of serum albumin (max. 0.001% final assay concentration) as well as in the presence of a higher concentration of serum albumin (0.2% final assay concentration). An increase of the IC50 value, in the presence of serum albumin indicates an affinity to serum albumin and represents a method to predict a protracted pharmacokinetic profile of the test substance in animal models.
# The following chemicals were used in the assay: DMEM w Glutamax (Gibco 61965-026), Pen/strep (Invitrogen 15140-122), G418 (Invitrogen 10131-027), Versene (Gibco 15040), 1 M Hepes (Gibco 15630), PBS (Invitrogen 14190-094), fetal calf serum (Invitrogen 16140-071), MgCl2 (Merck 1.05832.1000), EDTA (Invitrogen 15575-038), CaCl2 (Sigma, C5080), Tween 20 (Amresco 0850C335), ovalbumin (Sigma A5503), SPA particles (wheat germ agglutinin (WGA) SPA beads, Perkin Elmer RPNQ0001), [125I]-glucagon (produced in-house), OptiPlate™-96 (Packard 6005290).
# HME buffer consisted of 25 mM HEPES, 2 mM MgCl2 and 1 mM EDTA, and pH was adjusted to 7.4. Assay buffer consisted of 50 mM HEPES supplemented with 5 mM MgCl2, 1 mM CaCl2, 0.02% Tween 20 and 0.1% Ovalbumin, and pH was adjusted to 7.4.
# The cells used in this assay (clone BHK hGCGR A3*25) were BHK cells stable transfected with an expression plasmid containing the cDNA encoding the human glucagon receptor.
# The cells were grown at 5% CO2 in DMEM, 10% fetal calf serum, 1% Pen/Strep (Penicillin/Streptomycin) and 1.0 mg/ml of the selection marker G418. To make a membrane preparation the cells were grown to approximately 80% confluence. The cells were washed twice in phosphate-buffered saline and harvested. The cells were pelleted using a brief centrifugation and the cell pellet was kept on ice. Lyse the cells by adding approx. 5 ml HME buffer, mix by pipetting and snap freeze in liquid nitrogen. Thaw quickly and add HME buffer to 10 ml. The cell pellet was homogenised with an ULTRA-THURRAX dispersing instrument for 20-30 sec. The homogenate was centrifuged at 20.000×G, 4° C. for 10 min. The pellet was re-suspended (homogenised) in 1-2 ml HME buffer. The protein concentration was determined. The membranes were aliquoted and snap-frozen in liquid nitrogen and stored at minus 80° C.
# 1. For the receptor binding assay, 50 μl of the assay buffer was added to each well of an assay plate.
# 2. Test compounds were serially diluted to give the following concentrations: 8×10EE-7 M, 8×10EE-8 M, 8×10EE-9 M, 8×10EE-10 M, 8×10EE-11 M, 8×10EE-12 M and 8×10EE-13 M. Twenty-five μl were added to appropriate wells in the assay plate.
# 3. Cell membrane aliquots were thawed and diluted to their working concentration. Fifty μl were added to each well in the assay plate.
# 4. WGA SPA beads were suspended in assay buffer at 20 mg/ml. The suspension was diluted to 10 mg/ml in assay buffer just prior to addition to the assay plate. Fifty μl were added to each well in the assay plate.
# 5. The incubation was started by adding 25 μl of 480 pM solution of [125I]-glucagon to each well of the assay plate. A 25 μl aliquot was reserved for measuring total counts/well.
# 6. The assay plate was incubated for 2 h at 25° C.
# 7. […]
row,SMILES,IC50
1,"CC(C)C[C@H](NC(=O)[C@H](Cc1c[nH]c2ccccc12)NC(=O)[C@H](C)NC(=O)[C@@H](NC(=O)[C@H](Cc1ccccc1)NC(=O)[C@H](CCC(=O)O)NC(=O)[C@H](CCCNC(=N)N)NC(=O)[C@H](C)NC(=O)[C@H](CCCNC(=N)N)NC(=O)[C@H](CCCNC(=N)N)NC(=O)[C@H](CCCCNC(=O)CC[C@H](NC(=O)COCCOCCNC(=O)COCCOCCNC(=O)CC[C@H](NC(=O)CC[C@H](NC(=O)CCCCCCCCCCCCCCCCC(=O)O)C(=O)O)C(=O)O)C(=O)O)NC(=O)[C@H](CC(=O)O)NC(=O)[C@H](CC(C)C)NC(=O)[C@H](Cc1ccc(O)cc1)NC(=O)[C@H](CCCCN)NC(=O)[C@H](CO)NC(=O)[C@H](CC(C)C)NC(=O)[C@H](CC(=O)O)NC(=O)[C@H](CO)NC(=O)[C@@H](NC(=O)[C@H](Cc1ccccc1)NC(=O)[C@@H](NC(=O)CNC(=O)[C@H](CCC(N)=O)NC(=O)C(C)(C)NC(=O)[C@@H](N)Cc1c[nH]cn1)[C@@H](C)O)[C@@H](C)O)C(C)C)C(=O)N[C@@H](CC(C)C)C(=O)N[C@@H](CC(N)=O)C(=O)N[C@H](C(N)=O)[C@@H](C)O [Example 19, N^ε29-[(4S)-4-carboxy-4-[[2-[2-[2-[[2-[2-[2-[[(4S)-4-carboxy-4-[[(4S)-4-carboxy-4-(17-carboxyheptadecanoylamino)butanoyl]amino]butanoyl]amino]ethoxy]ethoxy]acetyl]amino]ethoxy]ethoxy]acetyl]amino]butanoyl]-[Aib2,Leu10,Lys16,Arg20,Glu21,Ala24,Leu27]-Glucagon amide] (H-H[Aib]QGTFTSDLSKYLDK([γGlu-AEEA-AEEA-γGlu-γGlu-C18 diacid])RRAREFVAWLLNT-NH2; N-terminus assumed)",8.5 nM
2,"CC(C)C[C@H](NC(=O)[C@H](CC(=O)O)NC(=O)[C@H](CC(C)C)NC(=O)[C@H](Cc1ccc(O)cc1)NC(=O)[C@H](CCCCN)NC(=O)[C@H](CO)NC(=O)[C@H](CC(C)C)NC(=O)[C@H](CC(=O)O)NC(=O)[C@H](CO)NC(=O)[C@@H](NC(=O)[C@H](Cc1ccccc1)NC(=O)[C@@H](NC(=O)CNC(=O)[C@H](CCC(N)=O)NC(=O)C(C)(C)NC(=O)[C@@H](N)Cc1c[nH]cn1)[C@@H](C)O)[C@@H](C)O)C(=O)N[C@@H](CCCCN)C(=O)N[C@@H](CCCNC(=N)N)C(=O)N[C@@H](C)C(=O)N[C@@H](CCCNC(=N)N)C(=O)N[C@@H](CCC(=O)O)C(=O)N[C@@H](Cc1ccccc1)C(=O)N[C@H](C(=O)N[C@@H](CCC(N)=O)C(=O)N[C@@H](Cc1c[nH]c2ccccc12)C(=O)N[C@@H](CC(C)C)C(=O)N[C@@H](CC(C)C)C(=O)N[C@@H](CCCCNC(=O)CC[C@H](NC(=O)CC[C@H](NC(=O)COCCOCCNC(=O)COCCOCCNC(=O)CC[C@H](NC(=O)CCCCCCCCCCCCCCCCC(=O)O)C(=O)O)C(=O)O)C(=O)O)C(=O)N[C@H](C(N)=O)[C@@H](C)O)C(C)C [Example 26, N^ε28-[(4S)-4-carboxy-4-[[(4S)-4-carboxy-4-[[2-[2-[2-[[2-[2-[2-[[(4S)-4-carboxy-4-(17-carboxyheptadecanoylamino)butanoyl]amino]ethoxy]ethoxy]-acetyl]amino]ethoxy]ethoxy]acetyl]amino]butanoyl]amino]butanoyl]-[Aib2,Leu10,Leu16,Lys17,Arg20,Glu21, Leu27,Lys28]-Glucagon amide] (H-H[Aib]QGTFTSDLSKYLDLKRAREFVQWLLK([γGlu-γGlu-AEEA-AEEA-γGlu-C18 diacid])T-NH2)",4 nM
3,"CC(C)C[C@H](NC(=O)[C@H](Cc1ccc(O)cc1)NC(=O)[C@H](CCCCN)NC(=O)[C@H](CO)NC(=O)[C@H](CC(C)C)NC(=O)[C@H](CC(=O)O)NC(=O)[C@H](CO)NC(=O)[C@@H](NC(=O)[C@H](Cc1ccccc1)NC(=O)[C@@H](NC(=O)CNC(=O)[C@H](CCC(N)=O)NC(=O)C(C)(C)NC(=O)[C@@H](N)Cc1c[nH]cn1)[C@@H](C)O)[C@@H](C)O)C(=O)N[C@@H](CCC(=O)O)C(=O)N[C@@H](CO)C(=O)N[C@@H](CCCNC(=N)N)C(=O)N[C@@H](CCCNC(=N)N)C(=O)N[C@@H](C)C(=O)N[C@@H](CCCNC(=N)N)C(=O)N[C@@H](CCC(=O)O)C(=O)N[C@@H](Cc1ccccc1)C(=O)N[C@H](C(=O)N[C@@H](CCC(N)=O)C(=O)N[C@@H](Cc1c[nH]c2ccccc12)C(=O)N[C@@H](CC(C)C)C(=O)N[C@@H](CC(C)C)C(=O)N[C@@H](CCCCNC(=O)CC[C@H](NC(=O)CC[C@H](NC(=O)COCCOCCNC(=O)COCCOCCNC(=O)CC[C@H](NC(=O)CCCCCCCCCCCCCCCCC(=O)O)C(=O)O)C(=O)O)C(=O)O)C(=O)N[C@H](C(N)=O)[C@@H](C)O)C(C)C [Example 23, N^ε28-[(4S)-4-carboxy-4-[[(4S)-4-carboxy-4-[[2-[2-[2-[[2-[2-[2-[[(4S)-4-carboxy-4-(17-carboxyheptadecanoylamino)butanoyl]amino]ethoxy]ethoxy]acetyl]amino]ethoxy]ethoxy]acetyl]amino]butanoyl]amino]butanoyl]-[Aib2,Leu10,Glu15,Arg20,Glu21,Leu27,Lys28]-Glucagon amide] (H-H[Aib]QGTFTSDLSKYLESRRAREFVQWLLK([γGlu-γGlu-AEEA-AEEA-γGlu-C18 diacid])T-NH2; N-terminus assumed)",6.4 nM
4,"CC(C)C[C@H](NC(=O)[C@H](CC(=O)O)NC(=O)[C@H](CC(C)C)NC(=O)[C@H](Cc1ccc(O)cc1)NC(=O)[C@H](CCCNC(=N)N)NC(=O)[C@H](CO)NC(=O)[C@H](CC(C)C)NC(=O)[C@H](CC(=O)O)NC(=O)[C@H](CO)NC(=O)[C@@H](NC(=O)[C@H](Cc1ccccc1)NC(=O)[C@@H](NC(=O)CNC(=O)[C@H](CCC(N)=O)NC(=O)C1(NC(=O)[C@@H](N)Cc2c[nH]cn2)CCC1)[C@@H](C)O)[C@@H](C)O)C(=O)N[C@@H](CCCNC(=N)N)C(=O)N[C@@H](CCCNC(=N)N)C(=O)N[C@@H](C)C(=O)N[C@@H](CCCNC(=N)N)C(=O)N[C@@H](CC(=O)O)C(=O)N[C@@H](Cc1ccccc1)C(=O)N[C@H](C(=O)N[C@@H](CCC(N)=O)C(=O)N[C@@H](Cc1c[nH]c2ccccc12)C(=O)N[C@@H](CC(C)C)C(=O)N[C@@H](CC(C)C)C(=O)N[C@@H](CCCCNC(=O)CC[C@H](NC(=O)CC[C@H](NC(=O)COCCOCCNC(=O)COCCOCCNC(=O)CC[C@H](NC(=O)CC[C@H](NC(=O)CCCCCCCCCCCCCCCCC(=O)O)C(=O)O)C(=O)O)C(=O)O)C(=O)O)C(=O)N[C@H](C(N)=O)[C@@H](C)O)C(C)C [Example 46, N^ε28-[(4S)-4-carboxy-4-[[(4S)-4-carboxy-4-[[2-[2-[2-[[2-[2-[2-[[(4S)-4-carboxy-4-[[(4S)-4-carboxy-4-(17-carboxyheptadecanoylamino)butanoyl]amino]butanoyl]amino]ethoxy]ethoxy]acetyl]amino]ethoxy]ethoxy]acetyl]amino]butanoyl]amino]butanoyl]-[Acb2,Leu10,Arg12,Leu16,Arg20,Leu27,Lys28]-Glucagon amide] (H-H[Ac4c]QGTFTSDLSRYLDLRRARDFVQWLLK([γGlu-γGlu-AEEA-AEEA-γGlu-γGlu-C18 diacid])T-NH2; N-terminus assumed)",8.5 nM

# — patent US9474790B2, “Stable, protracted GLP-1/glucagon receptor co-agonists for medical use” (Novo Nordisk A/S, priority 2013, dated 2016)
